# Reference: ChEMBL document CHEMBL1201862, “PubChem BioAssay data set” (2004)
# Calls of active or inactive are those of the source.
# Assays:
# [1] = molecular target: Eukaryotic translation initiation factor 4E (Mus musculus, UniProt P63073); test: eIF4E–eIF4G protein interaction inhibitors, dose response, biochemical, TR-FRET (AID 855); format: functional;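 further: potency for disrupting eIF4E binding to eIF4GI seen as loss of FRET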
# Escherichia coli = test: microbe, parasite or virus in culture
# [2] = molecular target: T1, Calpain-2 catalytic subunit (Sus scrofa, UniProt P43367); test: pig calpain II inhibitor potency, dose response, biochemical, fluorogenic peptide substrate (AID 1420); format: functional
# T1 sequence (P43367 whole entry): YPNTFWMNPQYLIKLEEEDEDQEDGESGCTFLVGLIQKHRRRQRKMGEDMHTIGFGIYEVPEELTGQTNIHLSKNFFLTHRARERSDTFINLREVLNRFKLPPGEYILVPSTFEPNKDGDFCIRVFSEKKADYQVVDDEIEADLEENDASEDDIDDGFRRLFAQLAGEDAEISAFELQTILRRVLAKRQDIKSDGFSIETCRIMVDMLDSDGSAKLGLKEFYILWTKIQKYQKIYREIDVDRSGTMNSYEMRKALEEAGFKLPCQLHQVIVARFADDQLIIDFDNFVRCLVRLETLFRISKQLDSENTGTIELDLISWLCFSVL
# [3] = Counterscreen for IDE inhibitors: Luminescence-based cell-based high throughput dose response assay to identify compounds that are cytotoxic to HEK cells. [Related pubchem assays: 434962 (Primary screen (IDE inhibitors in singlicate)), 449730 (Counterscreen (Cytotoxicity in triplicate)), 435028 (Confirmation (IDE inhibitors in triplicate)) …; format: functional; settings: HEK293
# Insulin-degrading enzyme = molecular target: T2, Insulin-degrading enzyme (Homo sapiens, UniProt P14735); test: Dose Response: Fluorescence polarization-based cell-based high throughput dose response assay for inhibitors of insulin-degrading enzyme (IDE). [Related pubchem assays: 434962 (Primary screen (IDE inhibitors in singlicate)), 449730 (Counterscreen (Cytotoxicity in triplicate)), 435028 (Confirmation (IDE inhibitors in triplicate)), 434984 (Summary …; format: functional
# T2 sequence (P14735 whole entry): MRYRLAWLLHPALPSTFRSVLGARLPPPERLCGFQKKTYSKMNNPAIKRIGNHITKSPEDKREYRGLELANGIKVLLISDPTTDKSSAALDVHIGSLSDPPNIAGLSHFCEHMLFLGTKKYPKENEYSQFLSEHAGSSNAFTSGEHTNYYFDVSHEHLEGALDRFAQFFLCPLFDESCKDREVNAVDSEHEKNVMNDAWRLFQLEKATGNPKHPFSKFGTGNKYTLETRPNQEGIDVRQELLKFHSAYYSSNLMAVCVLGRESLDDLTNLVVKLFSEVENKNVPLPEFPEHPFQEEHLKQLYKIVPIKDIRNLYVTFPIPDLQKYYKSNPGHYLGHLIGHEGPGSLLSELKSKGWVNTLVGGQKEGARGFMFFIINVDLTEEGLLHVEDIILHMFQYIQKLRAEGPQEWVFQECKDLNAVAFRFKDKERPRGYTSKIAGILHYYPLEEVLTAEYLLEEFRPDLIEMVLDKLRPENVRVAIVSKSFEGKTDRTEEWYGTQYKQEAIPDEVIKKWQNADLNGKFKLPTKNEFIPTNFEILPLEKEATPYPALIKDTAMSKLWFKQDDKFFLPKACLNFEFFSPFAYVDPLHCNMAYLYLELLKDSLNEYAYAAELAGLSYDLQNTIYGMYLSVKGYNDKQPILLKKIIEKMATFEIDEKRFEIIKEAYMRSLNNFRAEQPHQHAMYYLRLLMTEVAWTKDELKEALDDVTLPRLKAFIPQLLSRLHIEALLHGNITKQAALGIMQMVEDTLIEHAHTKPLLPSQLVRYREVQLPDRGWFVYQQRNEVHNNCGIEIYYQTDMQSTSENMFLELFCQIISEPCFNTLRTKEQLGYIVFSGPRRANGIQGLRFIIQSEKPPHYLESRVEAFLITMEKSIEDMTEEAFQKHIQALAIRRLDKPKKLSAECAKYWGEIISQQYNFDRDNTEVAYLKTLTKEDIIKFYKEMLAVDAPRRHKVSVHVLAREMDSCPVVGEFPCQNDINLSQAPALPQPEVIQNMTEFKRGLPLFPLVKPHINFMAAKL
# [4] = A cytotoxicity screen of small molecule inhibitors of the PhoP region in Salmonella typhi identified in the primary screen. [Related pubchem assays: 1850, 1864, 1985 ]; format: functional
# [5] = cytotoxicity toward NIH3T3 fibroblasts, dose response, counter-screen, cell-based, ATP luminescence, mouse fibroblasts (AID 2010); format: functional;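 further: cells exposed to compound for about 90 hours before reading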
# [6] = inhibitors of intracellular T. cruzi replication, confirmation, NIH3T3 host cells, beta-gal luminescence (AID 2044); format: functional, cell-based;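 further: intracellular parasites grown in NIH/3T3 mouse fibroblasts as host cells; luminescent beta-galactosidase reporter signal from transgenic T. cruzi replicating inside host cells; inhibitors lower the luminescence signal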
# INS1 = test: beta cell apoptosis inhibitors, cytokine rescue, dose response, luminescence, retest (AID 449756); format: functional, cell-based; settings: Rattus norvegicus;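 further: cell death triggered by IL-1 beta plus TNF-alpha plus IFN-gamma mixture; protective hits raise ATP signal compared with cytokine alone wells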
# [7] = cytotoxicity in HEK-293T cells, dose response, cytotoxicity control for BCR NF-kB inhibitor project, luminescence, B-cell screen hits (AID 489021); format: functional, cell-based;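 further: HEK-293T cells carrying an NF-kB luciferase reporter; cells exposed to compound for about 14 hours before viability readout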
# [8] = molecular target: Photoreceptor-specific nuclear receptor (Homo sapiens, UniProt Q9Y5X4); format: functional;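 further: potency for compounds that break the NR2E3 corepressor complex and count as activators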
# Photoreceptor-specific nuclear receptor, sequence (Q9Y5X4 whole entry): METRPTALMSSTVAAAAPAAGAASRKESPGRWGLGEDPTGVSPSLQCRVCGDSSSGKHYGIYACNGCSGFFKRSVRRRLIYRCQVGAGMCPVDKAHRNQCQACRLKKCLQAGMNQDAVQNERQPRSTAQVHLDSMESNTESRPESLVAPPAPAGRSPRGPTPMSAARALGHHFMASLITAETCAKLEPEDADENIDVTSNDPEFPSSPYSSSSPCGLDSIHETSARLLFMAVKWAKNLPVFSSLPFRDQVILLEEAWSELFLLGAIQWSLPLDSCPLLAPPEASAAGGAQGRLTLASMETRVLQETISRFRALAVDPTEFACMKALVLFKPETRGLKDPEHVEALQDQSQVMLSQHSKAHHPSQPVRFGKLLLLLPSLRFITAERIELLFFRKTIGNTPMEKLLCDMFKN
# [9] = molecular target: Peroxisome proliferator-activated receptor gamma/Nuclear receptor corepressor 2 (Homo sapiens, UniProt P37231+Q9Y618); format: functional
# Peroxisome proliferator-activated receptor gamma/Nuclear receptor corepressor 2, sequence (P37231 whole entry): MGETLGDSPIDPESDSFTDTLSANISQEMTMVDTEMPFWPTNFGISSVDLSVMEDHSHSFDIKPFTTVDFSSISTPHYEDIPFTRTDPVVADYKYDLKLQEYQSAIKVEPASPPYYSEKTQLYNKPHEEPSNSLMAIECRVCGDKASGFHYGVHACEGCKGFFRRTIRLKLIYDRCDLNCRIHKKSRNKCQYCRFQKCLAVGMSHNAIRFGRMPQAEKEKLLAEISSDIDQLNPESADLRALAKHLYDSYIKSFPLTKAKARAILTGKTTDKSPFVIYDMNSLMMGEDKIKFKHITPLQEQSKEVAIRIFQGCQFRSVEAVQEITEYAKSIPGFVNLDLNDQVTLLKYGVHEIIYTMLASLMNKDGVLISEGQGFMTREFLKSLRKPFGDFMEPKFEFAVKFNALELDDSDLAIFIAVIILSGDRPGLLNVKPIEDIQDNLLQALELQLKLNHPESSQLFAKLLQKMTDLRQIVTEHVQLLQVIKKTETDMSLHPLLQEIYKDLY
# Peroxisome proliferator-activated receptor gamma/Nuclear receptor corepressor 2, sequence (Q9Y618 whole entry): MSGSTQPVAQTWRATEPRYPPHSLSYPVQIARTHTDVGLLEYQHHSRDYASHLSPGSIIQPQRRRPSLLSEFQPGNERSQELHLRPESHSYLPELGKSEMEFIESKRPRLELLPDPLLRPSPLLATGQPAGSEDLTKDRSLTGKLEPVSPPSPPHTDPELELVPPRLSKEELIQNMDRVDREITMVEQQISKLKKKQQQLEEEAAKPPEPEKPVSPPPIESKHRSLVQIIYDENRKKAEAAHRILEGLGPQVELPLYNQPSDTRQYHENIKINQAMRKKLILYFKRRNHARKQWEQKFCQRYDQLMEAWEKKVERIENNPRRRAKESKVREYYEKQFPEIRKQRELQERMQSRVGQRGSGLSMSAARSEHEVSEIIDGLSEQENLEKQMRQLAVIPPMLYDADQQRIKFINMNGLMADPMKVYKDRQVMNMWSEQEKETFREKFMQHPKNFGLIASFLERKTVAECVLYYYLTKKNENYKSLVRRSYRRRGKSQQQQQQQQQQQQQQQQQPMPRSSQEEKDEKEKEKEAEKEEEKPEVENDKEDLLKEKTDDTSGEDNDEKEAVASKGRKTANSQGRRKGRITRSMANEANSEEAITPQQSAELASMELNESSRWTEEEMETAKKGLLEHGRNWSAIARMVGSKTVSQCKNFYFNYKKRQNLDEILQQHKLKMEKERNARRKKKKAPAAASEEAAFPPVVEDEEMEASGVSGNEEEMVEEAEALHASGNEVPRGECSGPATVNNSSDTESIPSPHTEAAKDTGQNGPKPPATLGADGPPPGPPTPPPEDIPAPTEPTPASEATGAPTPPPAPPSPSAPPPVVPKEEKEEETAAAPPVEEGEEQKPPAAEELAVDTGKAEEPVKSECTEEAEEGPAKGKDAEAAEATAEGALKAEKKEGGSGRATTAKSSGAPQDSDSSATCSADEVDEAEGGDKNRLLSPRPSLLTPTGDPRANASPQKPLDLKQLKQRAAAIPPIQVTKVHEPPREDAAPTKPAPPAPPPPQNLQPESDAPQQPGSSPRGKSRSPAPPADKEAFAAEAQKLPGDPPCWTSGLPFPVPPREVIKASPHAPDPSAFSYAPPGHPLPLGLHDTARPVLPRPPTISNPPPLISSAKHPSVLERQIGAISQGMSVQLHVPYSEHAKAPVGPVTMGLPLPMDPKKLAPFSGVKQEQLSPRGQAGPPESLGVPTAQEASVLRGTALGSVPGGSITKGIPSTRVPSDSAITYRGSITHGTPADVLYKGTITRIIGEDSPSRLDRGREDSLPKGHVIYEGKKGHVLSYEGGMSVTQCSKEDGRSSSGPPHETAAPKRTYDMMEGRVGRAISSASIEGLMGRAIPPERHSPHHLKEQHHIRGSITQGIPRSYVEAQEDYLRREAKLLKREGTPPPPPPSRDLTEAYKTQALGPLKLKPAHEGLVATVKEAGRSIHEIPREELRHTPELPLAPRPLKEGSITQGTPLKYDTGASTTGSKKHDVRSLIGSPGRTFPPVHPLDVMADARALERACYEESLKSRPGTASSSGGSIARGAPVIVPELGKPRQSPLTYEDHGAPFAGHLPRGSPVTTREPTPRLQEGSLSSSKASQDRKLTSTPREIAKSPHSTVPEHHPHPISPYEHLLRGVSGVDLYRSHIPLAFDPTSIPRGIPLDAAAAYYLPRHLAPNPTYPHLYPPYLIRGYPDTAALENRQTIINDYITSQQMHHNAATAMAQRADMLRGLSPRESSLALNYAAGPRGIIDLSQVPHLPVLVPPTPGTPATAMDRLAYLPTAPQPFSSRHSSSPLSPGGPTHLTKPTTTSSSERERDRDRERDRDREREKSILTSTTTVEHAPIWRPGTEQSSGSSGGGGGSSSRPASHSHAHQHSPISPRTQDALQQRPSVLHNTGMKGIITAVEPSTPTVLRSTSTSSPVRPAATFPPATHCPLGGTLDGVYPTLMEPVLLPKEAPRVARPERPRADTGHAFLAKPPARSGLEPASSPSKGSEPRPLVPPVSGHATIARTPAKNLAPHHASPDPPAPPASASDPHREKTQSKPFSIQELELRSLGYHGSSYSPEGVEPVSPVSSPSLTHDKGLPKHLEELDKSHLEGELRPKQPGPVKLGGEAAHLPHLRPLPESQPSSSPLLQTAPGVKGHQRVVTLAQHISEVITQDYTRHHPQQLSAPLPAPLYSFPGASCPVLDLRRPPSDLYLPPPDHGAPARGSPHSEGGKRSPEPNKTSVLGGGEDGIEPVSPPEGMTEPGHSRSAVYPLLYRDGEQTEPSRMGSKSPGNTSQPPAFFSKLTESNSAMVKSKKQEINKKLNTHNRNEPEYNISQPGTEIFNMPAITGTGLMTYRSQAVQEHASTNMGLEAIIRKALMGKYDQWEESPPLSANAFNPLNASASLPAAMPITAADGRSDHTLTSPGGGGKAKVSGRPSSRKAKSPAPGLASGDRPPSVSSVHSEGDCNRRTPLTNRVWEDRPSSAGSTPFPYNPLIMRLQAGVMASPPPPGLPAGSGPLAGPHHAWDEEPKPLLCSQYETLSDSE
# [10] = molecular target: Lysosomal acid glucosylceramidase (Homo sapiens, UniProt P04062); test: Dose response cell-based high throughput screening assay to identify enhancers of beta-glucosidase activity. [Related pubchem assays: 784 ]; format: functional
# Lysosomal acid glucosylceramidase, sequence (P04062 whole entry): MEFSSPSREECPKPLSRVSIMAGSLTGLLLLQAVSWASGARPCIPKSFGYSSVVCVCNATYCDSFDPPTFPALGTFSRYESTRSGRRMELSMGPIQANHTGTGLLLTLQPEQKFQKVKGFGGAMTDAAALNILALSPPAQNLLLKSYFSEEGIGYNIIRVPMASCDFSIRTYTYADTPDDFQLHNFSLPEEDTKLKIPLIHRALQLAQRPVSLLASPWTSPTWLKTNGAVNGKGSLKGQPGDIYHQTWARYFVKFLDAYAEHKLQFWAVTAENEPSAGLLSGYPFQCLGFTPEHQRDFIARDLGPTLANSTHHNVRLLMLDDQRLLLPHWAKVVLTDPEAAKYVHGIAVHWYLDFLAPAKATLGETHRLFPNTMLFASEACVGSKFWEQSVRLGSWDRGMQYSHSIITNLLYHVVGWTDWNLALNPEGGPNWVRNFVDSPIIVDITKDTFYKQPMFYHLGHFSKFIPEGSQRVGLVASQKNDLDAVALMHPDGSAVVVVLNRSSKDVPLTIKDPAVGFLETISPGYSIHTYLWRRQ
# [11] = molecular target: T3, Microphthalmia-associated transcription factor (Homo sapiens, UniProt O75030); test: TRPM1 promoter luciferase signal decrease, dose response, MITF inhibitor project, cell-based, SK-MEL-5, cherry-picked, set 3 (AID 493073); format: functional
# T3 sequence (O75030 whole entry): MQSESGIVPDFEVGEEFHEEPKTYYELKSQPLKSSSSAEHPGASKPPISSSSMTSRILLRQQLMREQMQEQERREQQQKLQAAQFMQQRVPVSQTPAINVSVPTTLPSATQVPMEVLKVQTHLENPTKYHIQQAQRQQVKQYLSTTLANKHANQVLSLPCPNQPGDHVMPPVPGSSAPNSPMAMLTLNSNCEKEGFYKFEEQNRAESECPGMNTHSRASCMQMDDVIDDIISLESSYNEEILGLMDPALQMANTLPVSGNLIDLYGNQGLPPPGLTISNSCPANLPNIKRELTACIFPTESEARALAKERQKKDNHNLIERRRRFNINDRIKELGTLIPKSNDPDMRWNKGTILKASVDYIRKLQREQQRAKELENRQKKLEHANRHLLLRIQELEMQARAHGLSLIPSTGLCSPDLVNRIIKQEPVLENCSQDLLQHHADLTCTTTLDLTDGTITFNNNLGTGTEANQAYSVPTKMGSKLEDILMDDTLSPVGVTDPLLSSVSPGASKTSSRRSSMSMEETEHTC
# [12] = HepG2 cell cytotoxicity, dose response, cytotoxicity control for Shn3 inhibitor project, CellTiter-Glo, cherry-picked (AID 624134); format: functional, cell-based
# [13] = Luminescence Cell-Based Dose Response HTS to Identify Inhibitors of 5'UTR Stem-Loop Driven Prion Protein mRNA Translation in H4 Neuroglioblastoma Cells. [Related pubchem assays: 1827 (Project Summary), 1813 (Primary HTS)]; format: functional
# [14] = Luminescence-based counterscreen assay for KLF5 inhibitors: dose response cell-based high throughput screening assay to identify cytotoxic compounds using the IEC-6 intestinal epithelial cell line. [Related pubchem assays: 1700 (Primary screen.), 1834 (Confirmation screen.), 1858 (Summary AID.), 1905 (Counterscreen.)]; format: functional
# [15] = Shn3 3'UTR reporter inhibitors, dose response, cell-based, Clone20 osteoblasts, firefly luciferase, cherry-picked (AID 624132); format: functional;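 further: firefly luciferase luminescence from reporter carrying the Shn3 3'UTR in osteoblasts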
# [16] = inhibitors of firefly luciferase expression or activity, dose response, H4 neuroglioma cells, luminescence (AID 1990); format: functional, cell-based
# [17] = reduction of Shn3 3'UTR firefly luciferase signal, dose response, Schnurri-3 inhibitor project, cell-based, Clone20 osteoblasts, cherry-pick, set 2 (AID 720490); format: functional;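 further: actives lower the luminescence signal as inhibitors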
# Eukaryotic translation initiation factor 4E, sequence (P63073 whole entry): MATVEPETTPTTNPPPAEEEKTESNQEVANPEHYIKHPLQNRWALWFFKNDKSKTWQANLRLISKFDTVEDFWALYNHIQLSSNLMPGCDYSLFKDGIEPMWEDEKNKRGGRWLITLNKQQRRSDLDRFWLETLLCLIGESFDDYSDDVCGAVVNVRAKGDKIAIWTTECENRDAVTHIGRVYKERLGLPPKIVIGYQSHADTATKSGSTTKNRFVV
smiles,measurement,setting,value
O=C(Nc1cccc(-c2nc3cccnc3s2)c1)C1c2ccccc2Oc2ccccc21,IC50,[1],> 64 µM (inactive)
same,AC50,Escherichia coli,50.5 µM (active)
same,IC50,[2],7.46 µM (active)
Cc1c(CCC(=O)NCCCn2ccnc2)c(=O)oc2cc3oc4c(c3cc12)CCCC4,IC50,[3],14.4 µM (not active)
same,IC50,Insulin-degrading enzyme,4.31 µM (active)
COc1nccnc1NS(=O)(=O)c1ccc(NC(=S)NC(=O)c2cccnc2)cc1,EC50,[4],> 50 µM (active)
CC(=O)C1=NN(c2ccccc2)C(c2cccs2)N1c1ccc(N(C)C)cc1 (configuration not stated),EC50,[5],> 60 µM (inconclusive)
same,EC50,[6],0.776 µM (active)
same,AC50,INS1,3.1 µM (active)
same,IC50,[7],> 80 µM (inactive)
Cc1ccc(C(=O)C2=C(O)C(=O)N(Cc3cccnc3)C2c2ccc(Br)cc2)o1 (configuration not stated),IC50,[8],> 39.8 µM (not active)
same,IC50,[9],9.36 µM (active)
Cc1ccc(C(C(=O)NC2CCCCC2)N2CCCC2)cc1 (configuration not stated),EC50,[10],> 50 µM (not active)
O=C(C1=C(O)C(=O)N(CCN2CCOCC2)C1c1ccc(Cl)cc1)c1cc2ccccc2o1 (configuration not stated),IC50,[8],> 39.8 µM (not active)
same,IC50,[9],9.92 µM (active)
COc1ccc(-n2ncc3c(N4CCCCC4)ncnc32)cc1,AC50,[11],1.48 µM (active)
same,AC50,[12],> 70 µM (inactive)
same,EC50,[13],0.282 µM (active)
same,IC50,[14],> 39.8 µM (not active)
same,AC50,[15],2.87 µM (active)
same,EC50,[16],1.72 µM (inconclusive)
same,AC50,[17],11 µM (active)
